Test results taken from paper PMC6852662 (Organic & biomolecular chemistry, 2019).

Molecular target: T1, PmST1 (Pasteurella multocida, UniProt Q15KI8)
T1 sequence (Q15KI8 26-412): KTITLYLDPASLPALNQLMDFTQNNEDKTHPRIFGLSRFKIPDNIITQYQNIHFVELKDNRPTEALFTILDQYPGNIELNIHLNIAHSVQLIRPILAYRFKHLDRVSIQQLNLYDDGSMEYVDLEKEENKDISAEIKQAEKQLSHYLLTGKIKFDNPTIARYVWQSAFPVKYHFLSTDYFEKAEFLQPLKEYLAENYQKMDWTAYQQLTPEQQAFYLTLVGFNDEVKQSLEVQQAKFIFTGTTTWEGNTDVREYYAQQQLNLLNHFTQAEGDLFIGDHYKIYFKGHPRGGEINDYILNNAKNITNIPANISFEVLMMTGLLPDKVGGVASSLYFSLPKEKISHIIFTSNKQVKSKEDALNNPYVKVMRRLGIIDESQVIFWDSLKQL
Test: sialylation, conversion
Format: biochemical
Conditions: poor substrate; prolonged incubation

For Gb5 [4a], the conversion was ~ 30%.
